Test results as given in publication PMC4382466 (Toxicologic pathology, 2014).
Read-outs that look alike come from different tables or passages of the source. Blank lines part the entries; values can stand above or below the compound they belong to.

How the values were obtained:
rats = settings: one-tenth the mouse LD10, ref NationalTechnicalInformationService; cited from earlier work
Fischer 344 rats [1] = test: Kidney and urinary bladder histopathology; format: in vivo; settings: 6 animals
Fischer 344 rats [2] = settings: rat, in vivo
γH2AX [3] = test: γH2AX immunofluorescence staining of kidney sections; format: in vivo, Fischer 344 rats; settings: five imaged fields, one rat/sex/group
Fischer 344 rats [4] = test: Clinical signs and body weights; format: in vivo; settings: n=6/sex/group
Fischer 344 rats [5] = test: Mesna as mitigating co-treatment of batracylin-induced toxicity; settings: male rats, mesna study, Day 5
Fischer 344 rats [6] = settings: rat, in vivo; remark: listed apart in the source
dogs = settings: two times the mouse LD50; ref NationalTechnicalInformationService; cited from earlier work
Fischer 344 rats [7] = settings: rat, in vivo; remark: listed apart in the source
γH2AX [8] = test: γH2AX immunofluorescence staining of bone marrow; format: in vivo, Fischer 344 rats
[9] = parameters: species or system Fischer 344 rats; settings: in vivo, po
[10] = oral batracylin 590 mg/m^2; ref Ames et al., 1991; cited from earlier work
[11] = male, Fischer 344, rat, 16 mg/kg
[12] = male, Fischer 344, rat, 32 mg/kg

Compound: Nc1ccc2c(c1)CN1C(=O)c3ccccc3C1=N2 [batracylin, 8-aminoisoindolo[1,2-b]quinazolin-12(10H)-one]
Toxicity of oral batracylin in rats (rats): lethal
Kidney: non-inflammatory tubular degeneration, severity (incidence) (Fischer 344 rats [1]; 16 mg/kg/day po x4 days, females): Mild (4), Moderate (2)
Kidney: non-inflammatory tubular degeneration, severity (incidence) (Fischer 344 rats [1]; 16 mg/kg/day po x4 days, males): Mild (6)
Kidney: non-inflammatory tubular degeneration, severity (incidence) (Fischer 344 rats [1]; 32 mg/kg/day po x4 days, females): Moderate (4), Marked (2)
Kidney: non-inflammatory tubular degeneration, severity (incidence) (Fischer 344 rats [1]; 32 mg/kg/day po x4 days, males): Moderate (6)
Lymphocytes, % of the total WBC population (Fischer 344 rats [2]): 19%
Neutrophils, % of the total WBC population (Fischer 344 rats [2]): 78%
Nuclei γH2AX positive, renal cortex (γH2AX [3]; female rat, 16 mg/kg batracylin): 22%
Nuclei γH2AX positive, renal cortex (γH2AX [3]; female rat, 32 mg/kg batracylin): 15%
Nuclei γH2AX positive, renal cortex (γH2AX [3]; male rat, 16 mg/kg batracylin): 13%
Nuclei γH2AX positive, renal cortex (γH2AX [3]; male rat, 32 mg/kg batracylin): 29%
Rats displaying evidence of toxicity (clinical signs) (Fischer 344 rats [4]; Day 3, high-dose group (32 mg/kg/day)): all of the rats
Rats displaying evidence of toxicity (clinical signs) (Fischer 344 rats [4]; Day 3, low-dose group (16 mg/kg/day)): a third of the rats
Non-inflammatory tubular degeneration, severity (Fischer 344 rats [5]): moderate
Tubular epithelial regeneration, severity (Fischer 344 rats [5]): mild
Incidence of visibly red urine (Fischer 344 rats [6]): 4 of the 6
Toxicity of oral batracylin in dogs (dogs): only slight toxicity
Protein casts, severity (Fischer 344 rats [7]): mild to moderate
Tubular dilation, severity (Fischer 344 rats [7]): mild
Urothelial atrophy, severity (Fischer 344 rats [7]): mild to moderate
Urothelial vacuolation, severity (Fischer 344 rats [7]): minimal to mild
Bone marrow cellular nuclei γH2AX positive (γH2AX [8]; 4 of 6 low-dose females (16 mg/kg)): Less than 0.5%
Bone marrow cellular nuclei γH2AX positive (γH2AX [8]; all 6 low-dose males (16 mg/kg)): Less than 0.5%
AUC(0-inf) [9, 11]: 118 ng·h/mL
AUC(0-t) [9, 11]: 98.3 ng·h/mL
Cmax [9, 11]: 11.1 ng/mL
Tmax [9, 11]: 4 h
k el [9, 11]: 4.83e-05 s⁻¹
half-life ([9]; male, Fischer 344, rat, 16 mg/kg, Half-life): 4 h
AUC(0-inf) [9, 12]: 144 ng·h/mL
AUC(0-t) [9, 12]: 112 ng·h/mL
Cmax [9, 12]: 11.8 ng/mL
Tmax [9, 12]: 4 h
half-life [9, 12]: 11.1 h
k el [9, 12]: 1.72e-05 s⁻¹
half-life ([9]; male, Fischer 344, rat, 32 mg/kg, Half-life): 11 h
half-life ([9]; male, Fischer 344, rat, 32 mg/kg, half-life): 4 to 11 h

increase of AUC0-24 hr for a 2-fold increase in dose ([9]; rat): 2.9 fold
AUC0-24 ([9]; rat, 16 mg/kg): 15150 ng·h/mL
AUC0-∞ ([9]; rat, 16 mg/kg): 15240 ng·h/mL
Cmax ([9]; rat, 16 mg/kg): 2507 ng/mL
Kel ([9]; rat, 16 mg/kg): 0.755 h⁻¹
Tmax ([9]; rat, 16 mg/kg): 4 h
AUC0-24 ([9]; rat, 32 mg/kg): 44620 ng·h/mL
AUC0-∞ ([9]; rat, 32 mg/kg): 45170 ng·h/mL
Cmax ([9]; rat, 32 mg/kg): 7214 ng/mL
Kel ([9]; rat, 32 mg/kg): 0.108 h⁻¹
NAB AUC0-24 hr, times greater than the corresponding value for batracylin ([9]; rat, 32 mg/kg): 398 times
NAB Cmax, times greater than the corresponding value for batracylin ([9]; rat, 32 mg/kg): 611 times
Tmax ([9]; rat, 32 mg/kg): 4 h
Compound: N-acetylbatracylin [NAB]
Systemic levels of NAB, times greater in the rat than in the mouse [10]: approximately 9 times
